Measurements taken from paper PMC3961306, “Comparison of the Cancer Gene Targeting and Biochemical Selectivities of All Targeted Kinase Inhibitors Approved for Clinical Use” (PLoS ONE, 2014).

How the values were obtained:
Assay in all cases: Kinase profiling in a biochemical assay panel (mobility shift assays and ELISA), %-inhibition at 1 μM; selectivity entropy
[1] = biological target: panel of more than 300 wild-type and mutant kinases (313 kinase panel) (Homo sapiens, UniProt P45983); conditions: kinase JNK1; compound at 1 μM
Sequence of panel of more than 300 wild-type and mutant kinases (313 kinase panel) (Homo sapiens, UniProt P45983) (P45983 whole entry, change not shown): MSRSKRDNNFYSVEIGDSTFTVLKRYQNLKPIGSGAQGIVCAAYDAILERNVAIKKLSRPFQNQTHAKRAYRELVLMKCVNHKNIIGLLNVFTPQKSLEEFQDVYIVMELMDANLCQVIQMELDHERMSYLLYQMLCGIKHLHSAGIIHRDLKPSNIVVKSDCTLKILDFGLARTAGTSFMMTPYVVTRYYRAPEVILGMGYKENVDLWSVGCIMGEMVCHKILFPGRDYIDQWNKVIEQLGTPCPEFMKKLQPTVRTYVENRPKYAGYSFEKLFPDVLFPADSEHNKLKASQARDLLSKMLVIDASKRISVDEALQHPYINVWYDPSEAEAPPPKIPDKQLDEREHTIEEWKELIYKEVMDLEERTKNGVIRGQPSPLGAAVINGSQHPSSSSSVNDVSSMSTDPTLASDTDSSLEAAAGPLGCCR

[2] = biological target: T1, panel of more than 300 wild-type and mutant kinases (313 kinase panel) (Homo sapiens, UniProt P15735)
T1 sequence (P15735 1-406): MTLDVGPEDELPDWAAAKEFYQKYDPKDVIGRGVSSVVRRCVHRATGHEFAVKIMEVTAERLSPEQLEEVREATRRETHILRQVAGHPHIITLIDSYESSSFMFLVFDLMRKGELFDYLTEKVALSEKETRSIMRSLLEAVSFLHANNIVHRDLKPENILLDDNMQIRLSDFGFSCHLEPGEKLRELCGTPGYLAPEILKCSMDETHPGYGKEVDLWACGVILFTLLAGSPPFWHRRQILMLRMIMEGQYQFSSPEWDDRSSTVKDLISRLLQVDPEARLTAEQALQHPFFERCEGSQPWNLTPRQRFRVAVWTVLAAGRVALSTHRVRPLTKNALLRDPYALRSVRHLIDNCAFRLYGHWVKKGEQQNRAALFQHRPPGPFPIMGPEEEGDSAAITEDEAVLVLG

[3] = biological target: T2, panel of more than 300 wild-type and mutant kinases (313 kinase panel) (Homo sapiens, UniProt Q13470)
T2 sequence (Q13470 1-666): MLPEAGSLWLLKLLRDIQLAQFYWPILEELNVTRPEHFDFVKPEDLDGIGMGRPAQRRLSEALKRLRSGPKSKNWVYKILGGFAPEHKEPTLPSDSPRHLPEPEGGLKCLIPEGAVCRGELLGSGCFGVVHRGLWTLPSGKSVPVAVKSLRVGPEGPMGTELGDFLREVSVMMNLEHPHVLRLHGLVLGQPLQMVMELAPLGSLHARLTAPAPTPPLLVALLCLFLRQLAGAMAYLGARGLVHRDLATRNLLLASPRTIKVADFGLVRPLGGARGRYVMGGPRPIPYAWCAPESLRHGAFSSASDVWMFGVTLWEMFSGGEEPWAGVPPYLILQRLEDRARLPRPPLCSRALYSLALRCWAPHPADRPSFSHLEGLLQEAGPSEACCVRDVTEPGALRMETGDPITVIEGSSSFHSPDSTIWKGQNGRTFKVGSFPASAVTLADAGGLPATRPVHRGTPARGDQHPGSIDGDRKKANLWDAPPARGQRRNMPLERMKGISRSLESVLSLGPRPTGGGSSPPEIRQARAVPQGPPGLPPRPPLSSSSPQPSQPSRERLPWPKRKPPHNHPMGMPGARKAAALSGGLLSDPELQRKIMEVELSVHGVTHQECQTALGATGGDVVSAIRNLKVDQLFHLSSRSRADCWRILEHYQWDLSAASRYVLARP

[4] = biological target: T3, panel of more than 300 wild-type and mutant kinases (313 kinase panel) (Homo sapiens, UniProt Q9BXA7); conditions: kinase TSSK1; 1 μM
T3 sequence (Q9BXA7 1-367): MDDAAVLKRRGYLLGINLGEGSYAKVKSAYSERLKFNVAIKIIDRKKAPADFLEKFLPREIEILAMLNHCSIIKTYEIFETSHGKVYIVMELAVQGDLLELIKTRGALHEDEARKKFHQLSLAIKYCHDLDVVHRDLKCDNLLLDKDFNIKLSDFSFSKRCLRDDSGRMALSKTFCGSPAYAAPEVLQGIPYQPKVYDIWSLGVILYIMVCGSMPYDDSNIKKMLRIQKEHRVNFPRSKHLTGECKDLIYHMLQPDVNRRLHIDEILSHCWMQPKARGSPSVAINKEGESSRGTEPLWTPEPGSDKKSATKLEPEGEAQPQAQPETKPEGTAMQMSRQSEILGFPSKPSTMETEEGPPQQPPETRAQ

[5] = biological target: panel of more than 300 wild-type and mutant kinases (313 kinase panel) (Homo sapiens, UniProt P51617); conditions: kinase IRAK1; compound at 1 μM
[6] = biological target: panel of more than 300 wild-type and mutant kinases (313 kinase panel) (Homo sapiens, UniProt P41240)
Sequence of panel of more than 300 wild-type and mutant kinases (313 kinase panel) (Homo sapiens, UniProt P41240) (P41240 whole entry, change not shown): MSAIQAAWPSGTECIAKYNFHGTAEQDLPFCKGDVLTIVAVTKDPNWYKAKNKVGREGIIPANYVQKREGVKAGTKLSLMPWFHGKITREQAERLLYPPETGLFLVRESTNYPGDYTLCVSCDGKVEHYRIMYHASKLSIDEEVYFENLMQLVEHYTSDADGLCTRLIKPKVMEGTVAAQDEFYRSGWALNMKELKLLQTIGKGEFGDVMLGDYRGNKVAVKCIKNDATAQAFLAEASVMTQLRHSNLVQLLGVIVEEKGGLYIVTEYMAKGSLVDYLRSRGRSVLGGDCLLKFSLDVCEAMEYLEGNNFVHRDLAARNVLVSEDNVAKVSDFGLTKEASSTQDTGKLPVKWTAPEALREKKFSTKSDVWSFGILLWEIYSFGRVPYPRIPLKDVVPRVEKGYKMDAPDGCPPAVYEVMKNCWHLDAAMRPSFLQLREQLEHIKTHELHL

[7] = biological target: panel of more than 300 wild-type and mutant kinases (313 kinase panel) (Homo sapiens, UniProt P08631)
Sequence of panel of more than 300 wild-type and mutant kinases (313 kinase panel) (Homo sapiens, UniProt P08631) (P08631 whole entry, change not shown): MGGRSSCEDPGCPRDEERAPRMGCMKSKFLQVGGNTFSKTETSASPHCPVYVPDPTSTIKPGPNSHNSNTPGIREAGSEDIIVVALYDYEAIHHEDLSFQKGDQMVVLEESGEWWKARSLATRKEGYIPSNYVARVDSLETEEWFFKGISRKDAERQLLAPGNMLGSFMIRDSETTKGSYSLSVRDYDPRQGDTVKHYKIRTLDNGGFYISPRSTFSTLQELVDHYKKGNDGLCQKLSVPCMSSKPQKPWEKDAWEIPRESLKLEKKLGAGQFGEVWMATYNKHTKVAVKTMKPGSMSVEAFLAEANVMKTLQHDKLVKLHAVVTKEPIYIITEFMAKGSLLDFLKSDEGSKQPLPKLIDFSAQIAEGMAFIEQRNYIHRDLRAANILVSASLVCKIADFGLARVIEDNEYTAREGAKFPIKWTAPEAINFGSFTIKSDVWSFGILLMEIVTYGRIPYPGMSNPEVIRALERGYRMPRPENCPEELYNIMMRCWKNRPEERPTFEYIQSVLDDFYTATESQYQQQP

[8] = biological target: panel of more than 300 wild-type and mutant kinases (313 kinase panel) (Homo sapiens, UniProt Q9HBH9); conditions: kinase MNK2; 1 μM
[9] = biological target: panel of more than 300 wild-type and mutant kinases (313 kinase panel) (Homo sapiens, UniProt P49760)

Row | SMILES | %-inhibition of JNK1 [1] [%] | %-inhibition of PHKG2 ([2]; kinase PHKG2, 1 μM) [%] | %-inhibition of TNK1 ([3]; kinase TNK1, 1 μM) [%] | %-inhibition of TSSK1 [4] [%] | %-inhibition of IRAK1 [5] [%] | %-inhibition of CSK ([6]; kinase CSK, compound at 1 μM) [%] | %-inhibition of HCK ([7]; kinase HCK, compound at 1 μM) [%] | %-inhibition of MNK2 [8] [%] | %-inhibition, CLK2 ([9]; kinase CLK2, 1 μM compound) [%] | %-inhibition of TNK1 ([3]; 1 µM) [%] | %-inhibition of CSK ([6]; 1 µM) [%] | %-inhibition of HCK ([7]; 1 µM) [%] | %-inhibition of PHKG2 ([2]; 1 µM) [%] | %-inhibition, CLK2 ([9]; 1 µM) [%]
1 | COc1cc2nccc(Oc3ccc(NC(=O)C4(C(=O)Nc5ccc(F)cc5)CC4)cc3)c2cc1OC [cabozantinib] | -2.85 | -0.305 | 89 | -1.49 | 14 | 60 | 95 | 97 | -5.26 | – | – | – | – | –
2 | CCCS(=O)(=O)Nc1ccc(F)c(C(=O)c2c[nH]c3ncc(-c4ccc(Cl)cc4)cc23)c1F [vemurafenib] | 1.47 | -4.37 | 13 | -4 | 10 | 76 | 30 | 27 | -13 | – | – | – | – | –
3 | CNC(=O)c1cc(Oc2ccc(NC(=O)Nc3ccc(Cl)c(C(F)(F)F)c3)c(F)c2)ccn1 [regorafenib] | -1.47 | -8 | 47 | -7 | 16 | 28 | 59 | 73 | -24 | – | – | – | – | –
4 | CO[C@H]1C[C@@H]2CC[C@@H](C)[C@@](O)(O2)C(=O)C(=O)N2CCCC[C@H]2C(=O)O[C@H]([C@H](C)C[C@@H]2CC[C@@H](OC(=O)C(C)(CO)CO)[C@H](OC)C2)CC(=O)[C@H](C)/C=C(\C)[C@@H](O)[C@@H](OC)C(=O)[C@H](C)C[C@H](C)/C=C/C=C/C=C/1C [temsirolimus] | -3.71 | -7 | -3 | -7 | 13 | -1.56 | 3.49 | -14 | -4.4 | – | – | – | – | –
5 | Cc1cn(-c2cc(NC(=O)c3ccc(C)c(Nc4nccc(-c5cccnc5)n4)c3)cc(C(F)(F)F)c2)cn1 [nilotinib] | 36 | -9 | – | -2.32 | 8 | – | – | 2 | 1.71 | -4 | 78 | 73 | – | –
6 | CS(=O)(=O)CCNCc1ccc(-c2ccc3ncnc(Nc4ccc(OCc5cccc(F)c5)c(Cl)c4)c3c2)o1 [lapatinib] | -6 | – | -8.45 | -3.21 | 3 | – | – | 2.43 | – | – | 1.88 | -0.366 | 0.269 | 3.6
